ChEMBL document CHEMBL4616702 (ACS Med Chem Lett, 2020)

Assays:
[1] = AUC (0 to 24 hrs) in Balb/c mouse at 10 mg/kg, po; format: ADME, organism-based; design: dose 10 mg/kg, time < 24 hr, route oral; details: in vivo
[2] = molecular target: T1, Nuclear receptor ROR-alpha (Homo sapiens, UniProt P35398); assay: Inverse agonist activity at Gal4-fused RORalpha (unknown origin)
T1 sequence (P35398 whole entry): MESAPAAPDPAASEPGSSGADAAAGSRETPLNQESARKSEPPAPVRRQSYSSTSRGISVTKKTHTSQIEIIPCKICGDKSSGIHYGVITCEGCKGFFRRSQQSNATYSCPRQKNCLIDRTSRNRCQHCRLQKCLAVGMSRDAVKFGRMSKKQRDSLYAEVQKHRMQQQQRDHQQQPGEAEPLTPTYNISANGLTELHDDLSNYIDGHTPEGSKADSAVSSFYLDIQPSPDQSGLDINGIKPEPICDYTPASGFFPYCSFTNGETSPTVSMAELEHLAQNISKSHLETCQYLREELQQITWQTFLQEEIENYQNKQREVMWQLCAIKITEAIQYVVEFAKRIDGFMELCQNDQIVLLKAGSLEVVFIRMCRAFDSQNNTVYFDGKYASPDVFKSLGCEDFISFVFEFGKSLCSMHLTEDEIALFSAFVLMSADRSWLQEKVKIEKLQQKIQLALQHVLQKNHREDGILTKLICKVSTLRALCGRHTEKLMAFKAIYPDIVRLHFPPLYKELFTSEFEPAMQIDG

[3] = molecular target: T2, Nuclear receptor ROR-beta (Homo sapiens, UniProt Q92753); assay: Inverse agonist activity at Gal4-fused RORbeta (unknown origin)
T2 sequence (Q92753 whole entry): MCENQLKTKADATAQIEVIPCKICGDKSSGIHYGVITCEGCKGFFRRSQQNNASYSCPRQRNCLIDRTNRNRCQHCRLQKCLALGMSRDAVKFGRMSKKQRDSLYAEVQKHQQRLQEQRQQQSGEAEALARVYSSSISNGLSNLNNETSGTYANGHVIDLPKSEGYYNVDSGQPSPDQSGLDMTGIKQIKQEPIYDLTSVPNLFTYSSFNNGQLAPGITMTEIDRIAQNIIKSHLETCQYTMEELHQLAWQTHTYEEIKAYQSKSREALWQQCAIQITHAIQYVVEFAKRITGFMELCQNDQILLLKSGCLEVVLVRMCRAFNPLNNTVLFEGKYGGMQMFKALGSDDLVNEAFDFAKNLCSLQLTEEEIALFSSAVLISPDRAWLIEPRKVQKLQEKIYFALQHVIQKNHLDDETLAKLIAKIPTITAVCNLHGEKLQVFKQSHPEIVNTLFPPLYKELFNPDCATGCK

[4] = molecular target: T3, Oxysterols receptor LXR-beta (Homo sapiens, UniProt P55055); assay: Inverse agonist activity at LXRbeta (unknown origin)
T3 sequence (P55055 whole entry): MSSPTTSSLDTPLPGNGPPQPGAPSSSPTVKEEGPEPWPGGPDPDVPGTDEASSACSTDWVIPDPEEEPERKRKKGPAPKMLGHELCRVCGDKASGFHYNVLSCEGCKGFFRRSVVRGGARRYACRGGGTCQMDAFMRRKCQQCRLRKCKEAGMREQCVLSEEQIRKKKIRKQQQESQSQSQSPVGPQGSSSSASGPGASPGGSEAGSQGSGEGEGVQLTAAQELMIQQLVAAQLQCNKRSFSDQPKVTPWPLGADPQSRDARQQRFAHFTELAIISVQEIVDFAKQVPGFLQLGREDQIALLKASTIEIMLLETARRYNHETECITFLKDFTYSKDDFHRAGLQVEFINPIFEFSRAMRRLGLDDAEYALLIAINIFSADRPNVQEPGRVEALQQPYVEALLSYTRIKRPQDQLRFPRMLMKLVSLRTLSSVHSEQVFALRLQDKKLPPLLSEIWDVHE

Cytochrome P450 2D6 = Cytochrome P450 2D6 (Homo sapiens, UniProt P10635); assay: Inhibition of recombinant CYP2D6 (unknown origin); format: ADME
Cytochrome P450 2D6, sequence (P10635 whole entry): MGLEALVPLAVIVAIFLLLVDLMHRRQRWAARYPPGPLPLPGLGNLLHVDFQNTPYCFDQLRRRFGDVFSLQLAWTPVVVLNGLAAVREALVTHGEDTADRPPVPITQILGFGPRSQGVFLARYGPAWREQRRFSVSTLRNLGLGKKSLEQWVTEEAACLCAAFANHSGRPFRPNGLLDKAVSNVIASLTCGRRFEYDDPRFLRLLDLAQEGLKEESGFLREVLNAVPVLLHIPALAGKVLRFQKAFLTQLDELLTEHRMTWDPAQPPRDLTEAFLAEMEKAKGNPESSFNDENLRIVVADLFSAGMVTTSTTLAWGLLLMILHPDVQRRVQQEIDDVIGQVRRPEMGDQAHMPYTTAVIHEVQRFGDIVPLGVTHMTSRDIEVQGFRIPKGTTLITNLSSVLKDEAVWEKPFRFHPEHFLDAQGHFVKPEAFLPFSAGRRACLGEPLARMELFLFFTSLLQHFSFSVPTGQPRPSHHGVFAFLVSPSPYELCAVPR

[5] = Permeability across apical to basolateral side in human Caco2 cells; format: ADME, cell-based; details: Caco-2, read-out: permeability
[6] = Fraction unbound in mouse plasma; format: ADME, cell-free
[7] = Fraction unbound in rat plasma; format: ADME, cell-free
[8] = Clearance in mouse at 2 mg/kg, iv; format: ADME, organism-based; details: in vivo
[9] = Cmax in mouse at 4 mg/kg, po; format: ADME, organism-based; design: dose 4 mg/kg, route oral; details: in vivo
[10] = Clearance in rat at 2 mg/kg, iv; format: ADME, organism-based; details: in vivo
[11] = Cmax in rat at 4 mg/kg, po; format: ADME, organism-based; design: dose 4 mg/kg, route oral; details: in vivo
[12] = Clearance in dog at 1 mg/kg, iv; format: ADME, organism-based, Canis lupus familiaris; details: in vivo
[13] = Cmax in dog at 1 mg/kg, po; format: ADME, organism-based, Canis lupus familiaris; design: dose 1 mg/kg, route oral; details: in vivo
[14] = Cmax in cynomolgus monkey at 1 mg/kg, po; format: ADME, organism-based, Macaca fascicularis; design: dose 1 mg/kg, route oral; details: in vivo
[15] = Volume of distribution in steady state in mouse at 2 mg/kg, iv; format: ADME, organism-based; details: in vivo, read-out: Vdss
[16] = AUC (0 to 24 hrs) in mouse at 4 mg/kg, po; format: ADME, organism-based; design: dose 4 mg/kg, time < 24 hr, route oral; details: in vivo
[17] = Volume of distribution in steady state in rat at 2 mg/kg, iv; format: ADME, organism-based; details: in vivo, read-out: Vdss
[18] = Volume of distribution in steady state in dog at 1 mg/kg, iv; format: ADME, organism-based, Canis lupus familiaris; details: in vivo, read-out: Vdss
[19] = Half life in mouse at 2 mg/kg, iv; format: ADME, organism-based; details: in vivo
[20] = Half life in rat at 2 mg/kg, iv; format: ADME, organism-based; details: in vivo
[21] = Oral bioavailability in rat at 4 mg/kg; format: ADME, organism-based; details: in vivo
[22] = Half life in dog at 1 mg/kg, iv; format: ADME, organism-based, Canis lupus familiaris; details: in vivo
[23] = Half life in cynomolgus monkey at 1 mg/kg, iv; format: ADME, organism-based, Macaca fascicularis; details: in vivo
[24] = Volume of distribution in steady state in cynomolgus monkey at 1 mg/kg, iv; format: ADME, organism-based, Macaca fascicularis; details: in vivo, read-out: Vdss
[25] = AUC (0 to 24 hrs) in cynomolgus monkey at 1 mg/kg, po; format: ADME, organism-based, Macaca fascicularis; design: dose 1 mg/kg, time < 24 hr, route oral; details: in vivo
[26] = Half life in human liver microsomes in presence of NADPH by LC/MS/MS method; format: ADME, Microsome
Cytochrome P450 2C19 = Cytochrome P450 2C19 (Homo sapiens, UniProt P33261); assay: Inhibition of recombinant CYP2C19 (unknown origin); format: ADME
Cytochrome P450 2C19, sequence (P33261 whole entry): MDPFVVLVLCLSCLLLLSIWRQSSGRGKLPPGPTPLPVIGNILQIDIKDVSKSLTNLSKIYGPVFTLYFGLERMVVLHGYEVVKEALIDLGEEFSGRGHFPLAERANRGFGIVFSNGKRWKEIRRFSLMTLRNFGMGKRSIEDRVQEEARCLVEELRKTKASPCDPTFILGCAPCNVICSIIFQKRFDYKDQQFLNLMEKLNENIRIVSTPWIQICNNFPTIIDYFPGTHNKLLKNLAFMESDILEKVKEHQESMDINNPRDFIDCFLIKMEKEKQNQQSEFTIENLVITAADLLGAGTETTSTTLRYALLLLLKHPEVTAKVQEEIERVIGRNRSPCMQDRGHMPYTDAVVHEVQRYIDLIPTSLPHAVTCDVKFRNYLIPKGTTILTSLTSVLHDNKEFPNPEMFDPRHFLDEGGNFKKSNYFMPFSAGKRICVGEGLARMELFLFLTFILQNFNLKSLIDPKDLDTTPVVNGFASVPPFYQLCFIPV

[27] = Drug concentration in Balb/c mouse at 10 mg/kg, po measured upto 24 hrs; format: ADME, organism-based; details: in vivo, read-out: Drug uptake

AUC(0-t) at 24 h [1]: 68 µM·h
EC50 [2]: > 10 µM
EC50 [3]: > 10 µM
EC50 [4]: > 7.5 µM
IC50 (Cytochrome P450 2D6): > 20 µM
Papp A→B [5]: 24 ×10⁻⁶ cm/s
fraction unbound [6]: 0.016
fraction unbound [7]: 0.021
clearance [8]: 2.7 mL/min/kg
Cmax [9]: 4.8 µM
clearance [10]: 1.3 mL/min/kg
Cmax [11]: 4.7 µM
clearance [12]: 0.18 mL/min/kg
Cmax [13]: 6.4 µM
Cmax [14]: 3.1 µM
Vd [15]: 1.9 L/kg
AUC(0-t) at 24 h [16]: 37 µM·h
Vd [17]: 1.2 L/kg
Vd [18]: 0.5 L/kg
half-life [19]: 7.7 h
half-life [20]: 11 h
bioavailability [21]: 94%
half-life [22]: 36 h
half-life [23]: 33 h
Vd [24]: 2 L/kg
AUC(0-t) at 24 h [25]: 35 µM·h
half-life [26]: > 2 h
IC50 (Cytochrome P450 2C19): > 20 µM
concentration at 24 h [27]: 0.52 µM
Structure (SMILES): C[C@H]1C[C@H](C(=O)O)CC[C@H]1C(=O)N1CC[C@@]2(S(=O)(=O)c3ccc(F)cc3)c3ccc(C(F)(C(F)(F)F)C(F)(F)F)cc3CC[C@@H]12 [BMS-986251]
